This note sets out measurements from patent US9169205B2, “Pyrrolidine derivatives, pharmaceutical compositions and uses thereof” (Boehringer Ingelheim International GmbH, priority 2012, dated 2015).

The target in the experiment is human ACC2 (Homo sapiens (Human), UniProt O00763). Put plainly: ACC2 assay (spectrophotometric 384 well assay, NADH-linked kinetic method). The experiment is classed as biochemical. As to conditions: hACC2 construct lacking 128 N-terminal amino acids, 25° C., 340 nm. The protocol: Spectrophotometric 384 Well Assay
human ACC2, sequence (O00763 129-2458): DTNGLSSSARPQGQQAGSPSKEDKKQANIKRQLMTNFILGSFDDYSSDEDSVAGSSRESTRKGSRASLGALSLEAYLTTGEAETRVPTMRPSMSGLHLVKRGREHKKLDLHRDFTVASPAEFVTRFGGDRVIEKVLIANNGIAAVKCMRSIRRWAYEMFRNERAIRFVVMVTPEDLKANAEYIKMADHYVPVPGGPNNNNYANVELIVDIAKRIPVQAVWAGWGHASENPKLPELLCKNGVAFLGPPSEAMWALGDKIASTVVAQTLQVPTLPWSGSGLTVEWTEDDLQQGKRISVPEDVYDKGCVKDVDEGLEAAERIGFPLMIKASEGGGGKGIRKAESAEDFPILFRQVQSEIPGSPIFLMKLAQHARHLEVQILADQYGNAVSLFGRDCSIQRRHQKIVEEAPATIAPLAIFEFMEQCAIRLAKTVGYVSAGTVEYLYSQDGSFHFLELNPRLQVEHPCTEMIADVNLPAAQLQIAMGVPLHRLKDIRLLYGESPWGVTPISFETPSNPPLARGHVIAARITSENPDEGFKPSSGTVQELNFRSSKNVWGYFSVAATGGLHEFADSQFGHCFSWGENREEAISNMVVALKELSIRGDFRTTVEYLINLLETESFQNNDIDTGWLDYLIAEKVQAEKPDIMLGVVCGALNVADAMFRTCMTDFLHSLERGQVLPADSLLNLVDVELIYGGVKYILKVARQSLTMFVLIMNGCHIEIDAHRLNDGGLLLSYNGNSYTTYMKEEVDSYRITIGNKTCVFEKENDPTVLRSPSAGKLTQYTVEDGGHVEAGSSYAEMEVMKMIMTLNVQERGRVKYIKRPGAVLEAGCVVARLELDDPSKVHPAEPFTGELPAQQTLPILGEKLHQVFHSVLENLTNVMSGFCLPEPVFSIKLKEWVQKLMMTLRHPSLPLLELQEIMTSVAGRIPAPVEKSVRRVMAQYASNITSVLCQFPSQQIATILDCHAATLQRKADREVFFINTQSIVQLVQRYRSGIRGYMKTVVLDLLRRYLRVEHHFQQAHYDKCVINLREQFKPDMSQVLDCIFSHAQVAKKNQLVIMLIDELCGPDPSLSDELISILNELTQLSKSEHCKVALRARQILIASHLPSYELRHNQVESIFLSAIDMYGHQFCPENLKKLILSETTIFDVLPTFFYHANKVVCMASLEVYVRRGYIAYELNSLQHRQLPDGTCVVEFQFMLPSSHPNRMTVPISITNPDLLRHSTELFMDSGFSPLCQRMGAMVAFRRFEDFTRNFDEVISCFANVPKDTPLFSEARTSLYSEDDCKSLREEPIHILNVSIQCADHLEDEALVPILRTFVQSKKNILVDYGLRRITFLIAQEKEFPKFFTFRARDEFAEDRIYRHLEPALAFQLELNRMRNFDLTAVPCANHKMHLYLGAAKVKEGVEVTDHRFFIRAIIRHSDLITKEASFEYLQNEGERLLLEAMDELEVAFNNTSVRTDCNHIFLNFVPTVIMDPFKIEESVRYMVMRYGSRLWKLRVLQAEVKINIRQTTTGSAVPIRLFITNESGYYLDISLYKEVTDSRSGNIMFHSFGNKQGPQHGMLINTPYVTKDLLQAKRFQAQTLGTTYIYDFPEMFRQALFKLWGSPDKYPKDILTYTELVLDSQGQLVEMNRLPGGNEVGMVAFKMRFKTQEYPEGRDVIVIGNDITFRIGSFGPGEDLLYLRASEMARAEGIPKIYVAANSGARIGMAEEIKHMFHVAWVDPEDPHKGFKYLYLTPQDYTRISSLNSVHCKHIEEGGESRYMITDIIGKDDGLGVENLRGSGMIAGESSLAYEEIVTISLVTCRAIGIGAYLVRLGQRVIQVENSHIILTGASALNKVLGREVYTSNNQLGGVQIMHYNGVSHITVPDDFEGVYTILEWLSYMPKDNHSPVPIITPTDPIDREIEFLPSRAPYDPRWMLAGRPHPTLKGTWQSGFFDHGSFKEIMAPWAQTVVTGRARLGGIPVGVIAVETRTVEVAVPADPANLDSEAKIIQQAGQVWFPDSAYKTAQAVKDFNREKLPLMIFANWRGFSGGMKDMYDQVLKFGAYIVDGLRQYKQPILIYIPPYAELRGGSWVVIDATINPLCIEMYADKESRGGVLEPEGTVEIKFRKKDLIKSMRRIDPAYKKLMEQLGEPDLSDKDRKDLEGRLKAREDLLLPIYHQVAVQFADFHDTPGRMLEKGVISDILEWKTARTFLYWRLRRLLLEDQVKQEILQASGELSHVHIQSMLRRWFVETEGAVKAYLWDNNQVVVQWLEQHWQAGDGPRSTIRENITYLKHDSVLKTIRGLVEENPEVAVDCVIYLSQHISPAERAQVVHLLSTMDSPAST
Malonyl CoA formation by acetyl CoA carboxylases is stoichometrically linked to the consumption of ATP. ACC2 activity is measured in a NADH-linked kinetic method measuring ADP generated during the ACC reaction using a coupled lactate dehydrogenase/pyruvate kinase reaction.
The protein is then expressed in insect cells using a baculoviral expression system. Protein purification is performed by anion exchange.
All compounds are dissolved in dimethyl sulfoxide (DMSO) to a concentration of 10 mM.
The enzymatic reaction is then started by addition of a mixture of NADH, acetyl Coenzyme A (both 200 μM f.c.) and ATP (500 uM f.c.). The decrease of the optical density (slope S) is then determined at 25° C. at a wavelength of 340 nm over 15 minutes in a spectrophotometric reader.
Each assay microtiter plate contains wells with vehicle instead of compound as controls for the non-inhibited enzyme (100% CTL; ‘HIGH’) and wells without acetyl-CoA as controls for non-specific NADH degradation (0% CTL; ‘LOW’).

pIC50: −log10 of the molar value.

The pIC50 is the negative decadic logarithm of the IC50, by convention in mol/L. A low value points to a large IC50. As for `CCC(=O)N[C@@H](C)c1ccc(O[C@@H]2CCN(c3ccc(OCC4CC4)cc3)C2)cc1` [Example 2.24], the pIC50 was 7.40. With `COCC(=O)Nc1nc(C)c(C(=O)N[C@@H](C)c2ccc(OC3CCN(c4ccc(OCC5CC5)cc4)C3)cc2)s1` (stereo partly drawn) [Example 2.42], the pIC50 is 7.70. `C[C@H](NC(=O)c1ccnnc1)c1ccc(O[C@@H]2CCN(c3ccc(OCC4CC4)cc3)C2)cc1` [Example 2.36] had a pIC50 of 6.70.

Consider `COc1ccc(N2CCC(Oc3ccc([C@H](C)NC(C)=O)cc3)C2)cc1F` (stereo partly drawn) [Example 1.93], for which the pIC50 was 6.22.

For `CC(=O)N[C@@H](C)c1ccc(OC2CCN(c3cc(C(F)F)ccc3F)C2)cc1` (stereo partly drawn) [Example 1.94], the pIC50 was 6.66. `CC(=O)N[C@@H](C)c1ccc(OC2CCN(c3ccc4c(c3C)OCCO4)C2)cc1` (stereo partly drawn) [Example 1.83] gave a negative-log IC50 (pIC50) of 6.46.

In turn, `Cc1ncncc1C(=O)N[C@@H](C)c1ccc(O[C@@H]2CCN(c3ccc(OCC4CC4)cc3)C2)cc1` [Example 2.18] showed a pIC50 of 6.26.

In turn, `CCOc1ccc(N2CCC(Oc3ccc([C@H](C)NC(C)=O)cc3)C2)c(F)c1` (stereo partly drawn) [Example 1.19] showed a pIC50 of 6.62. Consider `C[C@H](NC(=O)Nc1ccon1)c1ccc(OC2CCN(c3ccc(OCC4CC4)cc3)C2)cc1` (stereo partly drawn) [Example 3.7], for which the pIC50 is 7.25. For `CCOc1ccc(N2CCC(Oc3ccc([C@H](C)NC(C)=O)cc3)C2)c(C)c1` (stereo partly drawn) [Example 1.87], the pIC50 is 6.97. In the case of `COCCOc1ccc(N2CCC(Oc3ccc([C@H](C)NC(C)=O)cc3)C2)cc1` (stereo partly drawn) [Example 4.4] it was 6.25.

For `Cc1c(C(=O)N[C@@H](C)c2ccc(O[C@@H]3CCN(c4ccc(OCC5CC5)cc4)C3)cc2)cnn1C` [Example 2.47], the pIC50 was 6.41. Regarding `COc1cc(OCC2CC2(F)F)ccc1N1CCC(Oc2ccc([C@H](C)NC(C)=O)cc2)C1` (stereo partly drawn) [Example 1.57], the pIC50 was 6.35.

Regarding `C[C@H](NC(=O)c1cnn(C)c1N)c1ccc(O[C@@H]2CCN(c3ccc(OCC4CC4)cc3)C2)cc1` [Example 2.50], the pIC50 is 7.19. `CC(=O)N[C@@H](C)c1ccc(OC2CCN(c3ccc(OCCC(F)F)cc3)C2)nc1` (stereo partly drawn) [Example 1.102] showed a pIC50 of 6.67.

For `CC(=O)N[C@@H](C)c1ccc(OC2CCN(c3ccc4c(c3)COC4)C2)cc1` (stereo partly drawn) [Example 1.75], the pIC50 is 6.15. On to `C[C@H](NC(=O)N(C)Cc1ccncn1)c1ccc(OC2CCN(c3ccc(OCC4CC4)cc3)C2)cc1` (stereo partly drawn) [Example 3.6], for which the pIC50 was 6.30. In the case of `C[C@H](NC(=O)c1c[nH]nc1C#N)c1ccc(O[C@@H]2CCN(c3ccc(OCC4CC4)cc3)C2)cc1` [Example 2.57], the pIC50 is 6.91.

With `CC(=O)N[C@@H](C)c1ccc(OC2CCN(c3ccc(OC4CCC4)cc3)C2)cc1` (stereo partly drawn) [Example 1.14], the pIC50 was 7.44. On to `COc1cc(F)c(N2CCC(Oc3ccc([C@H](C)NC(C)=O)cc3)C2)cc1F` (stereo partly drawn) [Example 1.92], for which the pIC50 is 6.42. In the case of `C[C@H](NC(=O)c1cncs1)c1ccc(O[C@@H]2CCN(c3ccc(OCC4CC4)cc3)C2)cc1` [Example 2.38] it was 7.77; in that of `CC(=O)N[C@@H](C)c1ccc(OC2CCN(c3ccc(C)cc3F)C2)cc1` (stereo partly drawn) [Example 1.39], 6.10. Consider `C[C@H](NC(=O)c1ccon1)c1ccc(O[C@@H]2CCN(c3ccc(OCC4CC4)cc3)C2)cc1` [Example 2.34], for which the pIC50 was 7.15. In the case of `CC(=O)N[C@@H](C)c1ccc(OC2CCN(c3cccc(Cl)c3)C2)cc1` (stereo partly drawn) [Example 1.53], the pIC50 was 6.69. `CNC(=O)c1cccc(C(=O)N[C@@H](C)c2ccc(O[C@@H]3CCN(c4ccc(OCC5CC5)cc4)C3)cc2)n1` [Example 2.14] gave a negative logarithm of the IC50 (pIC50) of 6.15. Molecule `CCC(C)Oc1ccc(N2CCC(Oc3ccc([C@H](C)NC(C)=O)cc3)C2)cc1` (stereo partly drawn) [Example 4.3] showed a negative-log IC50 (pIC50) of 6.77.

With `CCOc1cccc(N2CC[C@H](Oc3ccc([C@H](C)NC(C)=O)cc3)C2)c1` [Example 1.4], the negative logarithm of the IC50 (pIC50) is 6.29.
